Source: US20070105877A1, “Pyrazolopyrimidines” (priority 2003, published 2007)

Each compound was assayed against PDE-5 (UniProt O76074) (assay: In vitro PDE inhibitory activity against PDE5 (batch method or scintillation proximity assay)). Conditions: representative preferred compounds.
Format: biochemical, human or rabbit
From the text: The compounds of the invention are inhibitors of cyclic guanylate monophosphate (cGMP)-specific phosphodiesterase type 5 (PDE-5 inhibitors).
In particular, cGMP-specific PDE5 and cGMP-inhibited cAMP PDE3 can be obtained from human corpus cavernosum tissue, human platelets or rabbit platelets; cGMP-stimulated PDE2 was obtained from human corpus cavernosum; calcium/calmodulin (Ca/CAM)-dependent PDE1 from human cardiac ventricle; cAMP-specific PDE4 from human skeletal muscle; and photoreceptor PDE6 from bovine retina. Phosphodiesterases 7-11 can be generated from full length human recombinant clones transfected into SF9 cells.
In summary, for the scintillation proximity assay the effect of PDE inhibitors was investigated by assaying a fixed amount of enzyme in the presence of varying inhibitor concentrations and low substrate, (cGMP or cAMP in a 3:1 ratio unlabelled to [^3H]-labeled at a concentration of ˜⅓ Km or less) such that IC50≅Kl. The final assay volume was made up to 100 μl with assay buffer [20 mM Tris-HCl pH 7.4, 5 mM MgCl2, 1 mg/ml bovine serum albumin]. Reactions were initiated with enzyme, incubated for 30-60 min at 30° C. to give <30% substrate turnover and terminated with 50 μl yttrium silicate SPA beads (containing 3 mM of the respective unlabelled cyclic nucleotide for PDEs 9 and 11).

IC50	Structure (SMILES)
1.65 nM	CCOCCn1nc(C(=O)NC)c2nc(N3CCN[C@H](C)C3)nc(Nc3cc(C)ccn3)c21 [Example 30, 1-(2-ethoxyethyl)-N-methyl-5-((3R)-3-methylpiperazin-1-yl)-7-(4-methylpyridin-2-yl-amino)-1H-pyrazolo[4,3-d]pyrimidine-3-carboxamide]
0.04 nM	CCOCCn1nc(C(=O)NCCC(=O)O)c2nc(N(C)C)nc(Nc3cc(C)ccn3)c21 [Example 23, 3-{[5-(dimethylamino)-1-(2-ethoxyethyl)-7-(4-methylpyridin-2-ylamino)-1H-pyrazolo[4,3-d]pyrimidine-3-carbonyl]amino}propionic acid]
0.26 nM	CCOCCn1nc(C(=O)NC)c2nc(N(C)C)nc(Nc3cc(C)ccn3)c21 [Example 14, 5-(dimethylamino)-1-(2-ethoxyethyl)-N-methyl-7-(4-methylpyridin-2-ylamino)-1H-pyrazolo[4,3-d]pyrimidine-3-carboxamide]
0.12 nM	CCOCCn1nc(C(=O)NC)c2nc(N(C)CCO)nc(Nc3cc(C)ccn3)c21 [Example 61]
1.88 nM	CCOCCn1nc(C(=O)NC)c2nc(NCCOC)nc(Nc3cc(C)ccn3)c21 [Example 62, 1-(2-ethoxyethyl)-5-((2-methoxyethyl)amino)-N-methyl-7-(4-methylpyridin-2-ylamino)-1H-pyrazolo[4,3-d]pyrimidine-3-carboxamide]
0.13 nM	CCOCCn1nc(C(=O)NCCO)c2nc(N(C)C)nc(Nc3cc(C)ccn3)c21 [Example 58, 5-(dimethylamino)-1-(2-ethoxyethyl)-N-(2-hydroxyethyl)-7-(4-methylpyridin-2-yl-amino)-1H-pyrazolo[4,3-d]pyrimidine-3-carboxamide]
0.333 nM	CCNC(=O)c1nn(CCOCC)c2c(Nc3cc(C)ccn3)nc(NCC)nc12 [Example 8, 1-(2-ethoxyethyl)-N-ethyl-5-(ethylamino)-7-(4-methylpyridin-2-ylamino)-1H-pyrazolo[4,3-d]pyrimidine-3-carboxamide]
0.57 nM	CCNc1nc(Nc2cc(C)ccn2)c2c(n1)c(C(=O)NCCOC)nn2CCOCC [Example 60, 1-(2-ethoxyethyl)-5-(ethylamino)-N-(2-methoxyethyl)-7-(4-methylpyridin-2-ylamino)-1H-pyrazolo[4,3-d]pyrimidine-3-carboxamide]
0.09 nM	CCOCCn1nc(C(=O)NCCOC)c2nc(N(C)C)nc(Nc3cc(C)ccn3)c21 [Example 19, 5-(dimethylamino)-1-(2-ethoxyethyl)-N-(2-methoxyethyl)-7-(4-methylpyridin-2-yl-amino)-1H-pyrazolo[4,3-d]pyrimidine-3-carboxamide]
0.02 nM	CCOCCn1nc(C(=O)N[C@H](C)C(=O)O)c2nc(N(C)C)nc(Nc3cc(C)ccn3)c21 [Example 22, (2R)-2-{[5-(dimethylamino)-1-(2-ethoxyethyl)-7-(4-methylpyridin-2-ylamino)-1H-pyrazolo[4,3-d]pyrimidine-3-carbonyl]amino}propionic acid]
0.06 nM	CCOCCn1nc(C(=O)NC2CCNCC2)c2nc(N(C)C)nc(Nc3cc(C)ccn3)c21 [Example 18]
2.95 nM	CCOCCn1nc(C(=O)NC)c2nc(N3CCN[C@H](C)C3)nc(NC3CCCCC3)c21 [Example 71, 7-(cyclohexylamino)-1-(2-ethoxyethyl)-N-methyl-5-((3R)-3-methylpiperazin-1-yl)-1H-pyrazolo[4,3-d]pyrimidine-3-carboxamide]
1.63 nM	CCOCCn1nc(C(=O)NCCOC)c2nc(NC)nc(Nc3cc(C)ccn3)c21 [Example 56, 1-(2-ethoxyethyl)-N-(2-methoxyethyl)-5-(methylamino)-7-(4-methylpyridin-2-ylamino)-1H-pyrazolo[4,3-d]pyrimidine-3-carboxamide]
1.31 nM	CCNc1nc(Nc2cc(C)ccn2)c2c(n1)c(C(=O)NC)nn2CCOCC [Example 50, 1-(2-Ethoxyethyl)-5-(ethylamino)-N-methyl-7-(4-methylpyridin-2-ylamino)-1H-Pyrazolo[4,3-d]pyrimidine-3-carboxamide]
0.24 nM	CCOCCn1nc(C(=O)NCCN(C)C)c2nc(N(C)C)nc(Nc3cc(C)ccn3)c21 [Example 17, 5-(dimethylamino)-N-(2-(dimethylamino)ethyl)-1-(2-ethoxyethyl)-7-(4-methylpyridin-2-ylamino)-1H-pyrazolo[4,3-d]pyrimidine-3-carboxamide]
0.4 nM	CCOCCn1nc(C(=O)NCCNC)c2nc(N(C)C)nc(Nc3cc(C)ccn3)c21 [Example 16]
0.42 nM	CCOCCn1nc(C(=O)NC)c2nc(N(C)[C@H]3CCN(C)C3)nc(Nc3cc(C)ccn3)c21 [Example 73, 1-(2-Ethoxyethyl)-N-methyl-5-[N-methyl-N-((3S)-1-methylpyrrolidin-3-yl)amino]-7-(4-methylpyridin-2-ylamino)-1H-pyrazolo[4,3-d]pyrimidine-3-carboxamide]
0.73 nM	CCNC(=O)c1nn(CCOCC)c2c(Nc3cc(C)ccn3)nc(N3CCN[C@H](C)C3)nc12 [Example 32]
